For test [1], the target named is human CB1 receptor (hCB1) (Homo sapiens, UniProt P21554). The test can be described thus: cAMP assay at human CB1 receptor. Type of test: cell-based. The following applies: hCB1R; maximum measurable range 30 μM; read-out: EC50 (Potency at Human CB1 determined by cAMP Assay). In short, it runs like this: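 Changes in intracellular cAMP measured by TR-FRET (665/615 nm) in forskolin-stimulated cells; cAMP read from a concurrent standard curve. Values normalised between forskolin and forskolin plus 1 μM CP55,940 wells. EC50 and intrinsic activity relative to CP55,940 from four-parameter nonlinear regression.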
On the technique in general: Cyclic AMP is a second messenger, typically raised through Gs and lowered through Gi signalling.

The target in test [2] is human CB2 receptor (hCB2) (Homo sapiens, UniProt P34972). The test is described as follows: cAMP assay at human CB2 receptor. The test is classed as cell-based. The following applies: hCB2R, maximum measurable range 30 μM. The method in brief:
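Values expressed as percent of the window between forskolin-stimulated wells and forskolin plus 1 μM CP55,940 wells.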

Test [3] relates to Male ICR mice. The test can be described thus: Inhibition of acetic acid-induced writhing in mice. The test is classed as in vivo, mouse. The following applies: dose of 10 mg/kg, subcutaneous 30 min before acetic acid. The source says: 12: 525-562; Ramabadran and Bansinath (1986) Pharm. Res. 3: 263-270]. Intraperitoneal administration of dilute acetic acid solution causes a writhing behavior in mice. A writhe is defined as a contraction of the abdominal muscles accompanied by an extension of the forelimbs and elongation of the body. The number of writhes observed in the presence and absence of test compounds is counted to determine the analgesic activity of the compounds.
Male ICR mice, 20-40 grams in weight, were weighed and placed in individual observation chambers (usually a 4 L beaker) with a fine layer of rodent bedding at the bottom. To determine the activity and potency of test compounds, different doses of the compound solution or vehicle were injected subcutaneously in the back of the neck 30 minutes prior to administration of acetic acid solution. After administration of the compound or vehicle control, mice were returned to their individual observation chambers awaiting the intraperitoneal administration of acetic acid solution.
Thirty minutes later, 10 ml/kg of a 0.6% (v/v) acetic acid solution was then injected into the right lower quadrant of the abdomen. Immediately after the injection, the mouse was returned to its observation chamber and the recording of the number of writhes is begun immediately. The number of writhes was counted over a 15-min period starting from the time of acetic acid injection. Raw data were analyzed using a one-way ANOVA followed by Dunnett's post-tests.
For dose-response analysis, raw data were converted to % maximum possible effect (% MPE) using the formula: % MPE=((Wc−Wv)/(0−Wv))*100, where Wc is the number of writhes in compound-treated mice and Wv is the mean number of writhes in vehicle-treated mice. The dose which elicited 50% attenuation of hypersensitivity (ED50) can be determined using linear regression analysis. (Tallarida & Murray, 1987).
Background: Writhing tests count abdominal constrictions after an irritant is injected.

Test [4] has as its system male Sprague-Dawley rats. The test can be described thus: Anti-hyperalgesia in the Complete Freund's Adjuvant (CFA) model of inflammatory pain. The test is classed as in vivo. The following applies: PO dose 3 mg/kg; 1 hr after dosing; thermal hyperalgesia; rat; read-out: % MPE (1 hr), paw withdrawal latency after CFA injection. How it is done: The anti-hyperalgesic effects of test compounds in the Complete Freund's Adjuvant (CFA) model of inflammatory pain were determined essentially as described in U.S. Pat. No. 7,517,874 using male Sprague-Dawley rats (Hsd: Sprague-Dawley®SD®, Harlan, Indianapolis, Ind.) weighing 200-300 grams.
Test compounds were prepared in a Cremaphor vehicle mixture of 1:1:18 CremophorEL:ethanol:water. Cremophor was obtained from Sigma Chemical (St. Louis, Mo.). The vehicle mixture or vehicle mixture plus test compound were each administered orally.
Assessment of thermal hyperalgesia: Baseline and post-treatment paw withdrawal latencies to a noxious thermal stimulus were measured using a plantar test apparatus (Ugo Basile; obtained from Stoelting, Wood Dale, Ill.). This apparatus generates an infrared heat source that is linearly increasing in intensity. To avoid tissue damage, the power to the heat source was cut off after 20 seconds.
Paw withdrawal latency is defined as the time required for the rat to flick its paw away from the thermal stimulus. Ibuprofen (100 mg/kg, p.o.) was used as the positive control. Paw withdrawal latencies (in seconds) were measured before (naïve paw latency, L1) and 24 hr following (CFA-inflamed paw latency, L2) a single intraplantar injection of 0.1 mL CFA (Sigma-Aldrich, cat F5881, Mycobacterium tuberculosis 1 mg/ml).
Test compounds were administered orally 23 hours following CFA injection; i.e., 1 hour prior to thermal assessment (compound treated CFA-inflamed paw latency, L3). The mean paw withdrawal latency and standard error of the mean (SEM) was determined for the injured paws for each treatment group.
Data were expressed as percent maximum […] effect (% MPE) defined as the percentage of restoration of latency of test compound-treated CFA inflamed paw as compared to the naïve paw latency.

Test [5] has as its system Rat L5/L6 SNL model. The test is described as follows: Spinal nerve ligation (SNL) model of chronic neuropathic pain. The test is classed as in vivo. The following applies: two-way repeated measurement ANOVA, Bonferroni post-tests. How it is done: The SNL model (Kim and Chung, 1992, Pain 50 (3):355-63) was used to induce chronic neuropathic pain in rats. Rats were anesthetized with isoflurane, the left L5 transverse process was removed, and the L5 and L6 spinal nerves were tightly ligated with 6-0 silk suture. The wound was then closed with internal sutures and external staples. Following at least seven days post SNL, baseline, post-injury and post-treatment values for non-noxious mechanical sensitivity were evaluated using eight Semmes-Weinstein filaments (Stoelting, Wood Dale, Ill., USA) with varying stiffness (0.4, 0.7, 1.2, 2.0, 3.6, 5.5, 8.5, and 15 g) according to the up-down method (Chaplan et al., 1994, J. Neurosci. Meth., 53 (1):55-63). Animals were placed on a perforated metallic platform and allowed to acclimate to their surroundings for a minimum of thirty minutes before testing.
Rat L5/L6 SNL model (n=6/group; mean±sem). Sensitivity to non-noxious mechanical stimuli was tested before and at various time points following oral administration of compound (36). The mean and standard error of the mean (SEM) were determined for the injured paw in each treatment group. Since this stimulus is normally not considered painful, significant injury-induced increases in responsiveness in this test are interpreted as a measure of mechanical allodynia.

Setting [6] is: EC50 (Potency at Human CB2 determined by cAMP Assay).
Setting [7] is: read-out: EC50 (Potency at Human CB2 determined by cAMP Assay).

Structures are written as SMILES. pEC50: −log10 of the molar value. Like-named read-outs stand apart in the source and are kept apart here.

By pEC50 is commonly meant −log10 of the EC50, conventionally taken in molar units.

human CB1 receptor (hCB1), sequence (P21554 whole entry): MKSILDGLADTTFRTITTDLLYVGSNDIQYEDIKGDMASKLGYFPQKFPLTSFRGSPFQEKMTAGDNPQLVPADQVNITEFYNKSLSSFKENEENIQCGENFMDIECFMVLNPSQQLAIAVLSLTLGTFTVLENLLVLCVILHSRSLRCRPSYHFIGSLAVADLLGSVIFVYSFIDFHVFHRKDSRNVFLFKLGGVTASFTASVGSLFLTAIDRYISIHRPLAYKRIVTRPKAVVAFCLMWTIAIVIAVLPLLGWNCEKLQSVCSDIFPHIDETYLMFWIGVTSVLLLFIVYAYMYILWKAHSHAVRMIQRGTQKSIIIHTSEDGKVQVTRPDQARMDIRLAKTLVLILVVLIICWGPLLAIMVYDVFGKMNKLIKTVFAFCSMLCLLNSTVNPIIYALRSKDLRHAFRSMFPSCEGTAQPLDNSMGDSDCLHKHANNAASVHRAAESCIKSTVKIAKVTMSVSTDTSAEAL
human CB2 receptor (hCB2), sequence (P34972 whole entry): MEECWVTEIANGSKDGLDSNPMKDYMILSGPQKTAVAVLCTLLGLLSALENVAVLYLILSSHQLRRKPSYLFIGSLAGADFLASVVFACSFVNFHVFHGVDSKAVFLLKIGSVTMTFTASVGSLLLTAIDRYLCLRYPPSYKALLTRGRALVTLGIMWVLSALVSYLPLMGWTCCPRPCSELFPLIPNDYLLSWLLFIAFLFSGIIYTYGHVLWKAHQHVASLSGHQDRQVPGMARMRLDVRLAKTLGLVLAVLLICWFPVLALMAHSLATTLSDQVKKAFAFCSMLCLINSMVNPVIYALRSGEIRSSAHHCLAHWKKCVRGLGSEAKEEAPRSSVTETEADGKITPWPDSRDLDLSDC

Turning to `CNC(=O)[C@@H](NC(=O)n1nc(-c2cc(F)c(F)cc2F)c2c1CCN(C)C2)C(C)(C)C` [Compound 37, (S)—N-(3,3-dimethyl-1-(methylamino)-1-oxobutan-2-yl)-5-methyl-3-(2,4,5-trifluorophenyl)-4,5,6,7-tetrahydro-1H-pyrazolo[4,3-c]pyridine-1-carboxamide], the pEC50 in test [1] and in test [2] (setting [6]) was > 6.00 each time. The “reversal of the mechanical hyperalgesia induced by the acetic acid treatment” value in test [3] is reported as 100%.
In the case of `CC(C)(C)[C@H](NC(=O)n1nc(-c2ccc(F)c(F)c2)c2c1CCOC2)C(=O)NCCO` [Compound 36, (S)—N-(1-(2-hydroxyethylamino)-3,3-dimethyl-1-oxobutan-2-yl)-3-(3,4-difluorophenyl)-6,7-dihydropyrano[4,3-c]pyrazole-1(4H)-carboxamide], the negative-log EC50 (pEC50) in test [1] and in test [2] (setting [6]) was > 6.00 in each case. Besides, the inhibition in vivo at 3 mg/kg in test [4] was found to be 44%. Moreover, the “Sensitivity to non-noxious mechanical stimuli, significance vs. vehicle-controls” value in test [5] (3 mg/kg oral) is recorded as “significant to p<0.05 vs. vehicle-controls”; in test [5] (10 mg/kg oral) it was “significant to p<0.001 vs. vehicle-controls”; in test [5] (30 mg/kg oral), “significant to p<0.001 vs. vehicle-controls”.
With `CN1CCc2c(c(-c3ccc(F)c(F)c3)nn2C(=O)N[C@H](C(=O)NCCO)C(C)(C)C)C1` [Compound 98, (S)-3-(3,4-difluorophenyl)-N-(1-(2-hydroxyethylamino)-3,3-dimethyl-1-oxobutan-2-yl)-5-methyl-4,5,6,7-tetrahydro-1H-pyrazolo[4,3-c]pyridine-1-carboxamide], the negative logarithm of the EC50 (pEC50) in test [1] and in test [2] (setting [6]) was > 6.00 in each case. Further, the inhibition in vivo at 3 mg/kg in test [4] was determined as 36%.
As for `CNC(=O)[C@@H](NC(=O)n1nc(-c2ccc(F)c(F)c2)c2c1CCCN2CCO)C(C)(C)C` [Compound 101, (S)-3-(3,4-difluorophenyl)-N-(3,3-dimethyl-1-(methylamino)-1-oxobutan-2-yl)-4-(2-hydroxyethyl)-4,5,6,7-tetrahydro-1H-pyrazolo[4,3-b]pyridine-1-carboxamide], the pEC50 in test [1] and in test [2] (setting [7]) was > 6.00 throughout. For the same molecule, in test [4], the inhibition in vivo at 3 mg/kg was 28%.
Regarding `CN1CCCc2c1c(-c1cc(Cl)ccc1F)nn2C(=O)N[C@H](C(=O)NCCO)C(C)(C)C` [Compound 94, (S)-3-(5-chloro-2-fluorophenyl)-N-(1-(2-hydroxyethylamino)-3,3-dimethyl-1-oxobutan-2-yl)-4-methyl-4,5,6,7-tetrahydro-1H-pyrazolo[4,3-b]pyridine-1-carboxamide], the negative logarithm of the EC50 (pEC50) in test [1] and in test [2] (setting [6]) was > 6.00 each time. The inhibition in vivo at 3 mg/kg in test [4] was found to be 27%.
With `CN1CCc2c(-c3ccc(F)c(F)c3)nn(C(=O)N[C@H](C(=O)NCCO)C(C)(C)C)c2C1` [Compound 90, (S)-3-(3,4-difluorophenyl)-N-(1-(2-hydroxyethylamino)-3,3-dimethyl-1-oxobutan-2-yl)-6-methyl-4,5,6,7-tetrahydro-1H-pyrazolo[3,4-c]pyridine-1-carboxamide], the negative-log EC50 (pEC50) is > 6.00 in test [1] and < 6.00 in test [2] (setting [7]). For the same molecule, the inhibition in vivo at 3 mg/kg in test [4] is 25%.
Turning to `CN1CCc2c(-c3cc(F)c(F)cc3F)nn(C(=O)N[C@H](C(=O)NCCO)C(C)(C)C)c2C1` [Compound 89, (S)—N-(1-(2-hydroxyethylamino)-3,3-dimethyl-1-oxobutan-2-yl)-6-methyl-3-(2,4,5-trifluorophenyl)-4,5,6,7-tetrahydro-1H-pyrazolo[3,4-c]pyridine-1-carboxamide], the negative logarithm of the EC50 (pEC50) in test [1] and in test [2] (setting [6]) was > 6.00 in each case. For the same molecule, the inhibition in vivo at 3 mg/kg in test [4] worked out at 52%.
For the molecule `CC(C)(C)[C@H](NC(=O)n1nc(-c2cc(Cl)ccc2F)c2c1COCC2)C(=O)NCCO` [Compound 96, (S)-3-(5-chloro-2-fluorophenyl)-N-(1-(2-hydroxyethylamino)-3,3-dimethyl-1-oxobutan-2-yl)-4,5-dihydropyrano[3,4-c]pyrazole-1(7H)-carboxamide], the pEC50 in test [1] and in test [2] (setting [6]) was > 6.00 each time. Moreover, in test [4], the inhibition in vivo at 3 mg/kg was 52%.
Regarding `CC(C)(C)[C@H](NC(=O)n1nc(-c2ccc(F)c(F)c2)c2c1COCC2)C(=O)NCCO` [Compound 95, (S)-3-(3,4-difluorophenyl)-N-(1-(2-hydroxyethylamino)-3,3-dimethyl-1-oxobutan-2-yl)-4,5-dihydropyrano[3,4-c]pyrazole-1(7H)-carboxamide], the pEC50 in test [1] and in test [2] (setting [6]) was > 6.00 in each case. Besides, the inhibition in vivo at 3 mg/kg in test [4] turned out to be 41%.
Turning to `CN1CCc2c(-c3cc(F)ccc3F)nn(C(=O)N[C@H](C(=O)NCCO)C(C)(C)C)c2C1` [Compound 93, (S)-3-(2,5-difluorophenyl)-N-(1-(2-hydroxyethylamino)-3,3-dimethyl-1-oxobutan-2-yl)-6-methyl-4,5,6,7-tetrahydro-1H-pyrazolo[3,4-c]pyridine-1-carboxamide], the pEC50 in test [1] and in test [2] (setting [6]) was > 6.00 in each case. In test [4], the inhibition in vivo at 3 mg/kg amounted to 28%.
On to `CC(C)(C)[C@H](NC(=O)n1nc(-c2cc(F)ccc2F)c2c1CCOC2)C(=O)NCCO` [Compound 87, (S)-3-(2,5-difluorophenyl)-N-(1-(2-hydroxyethylamino)-3,3-dimethyl-1-oxobutan-2-yl)-6,7-dihydropyrano[4,3-c]pyrazole-1(4H)-carboxamide], for which the pEC50 in test [1] and in test [2] (setting [6]) was > 6.00 throughout. Further, in test [4], the inhibition in vivo at 3 mg/kg was 50%.
Turning to `CC(C)(C)[C@H](NC(=O)n1nc(-c2ccc(Cl)cc2F)c2c1CCOC2)C(=O)NCCO` [Compound 88, (S)-3-(4-chloro-2-fluorophenyl)-N-(1-(2-hydroxyethylamino)-3,3-dimethyl-1-oxobutan-2-yl)-6,7-dihydropyrano[4,3-c]pyrazole-1(4H)-carboxamide], the negative logarithm of the EC50 (pEC50) in test [1] and in test [2] (setting [7]) was > 6.00 each time. In test [4], the inhibition in vivo at 3 mg/kg was 47%.

The record behind these values is US7741350B1 (Cara Therapeutics, Inc., priority 2009, dated 2010).
